Measured values published in patent US4983328A, “N-(4-(3-aminopropyl)aminobutyl)-2-(ω-gua nidino-fatty-acid-amido(-2-substituted-ethanamide, salt thereof, and process for preparation thereof” (Bristol-Myers Company, priority 1981, dated 1991).
Values after ≈ are worked out from the molar mass of the structure shown. Where two headings read alike, the source gives them in different places.

What was measured:
[1] = test system: mouse leukemia L-1210 cells; assay: growth inhibitory activity to cancer cells in vitro (L-1210, 48 hours); format: cell-based; conditions: for inhibition at 5 µg/mL: L1210, 5 mcg/ml; for inhibition at 10 µg/mL: L1210, 10 mcg/ml; for inhibition at 20 µg/mL: L1210, 20 mcg/ml; for inhibition at 40 µg/mL: L1210, 40 mcg/ml; for inhibition at 80 µg/mL: L1210, 80 mcg/ml; for IC50: L1210, L-1210 cells, read-out: 50% inhibitory concentration; for inhibition at 2.5 µg/mL: L1210, 2.5 mcg/ml
Outline: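 L-1210 cells from DBA/2 mouse ascites, cultured at 5×10^4 cells per well in RPMI 1640 with 10% FCS and 5 μM 2-mercaptoethanol, 37° C, CO2, for 48 h with compound. Cell counts by Coulter Counter gave % inhibition (1−T/C)×100, and IC50 was derived across concentrations.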

[2] = cumulative toxicity in mice (maximum tolerated dose, once a day for 6 consecutive days); conditions: mouse, in vivo, ip, i.p. once a day for 6 consecutive days, total dose, read-out: Maximum Tolerated Dose (total dose not causing death)
Outline: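 Mice dosed intraperitoneally once a day for 6 consecutive days with a fixed amount per unit body weight. The value is the maximum total dose not causing death.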

mouse leukemia L-1210 = assay: therapeutic effect on implanted cancer in mice (L-1210, survival over 30 days); format: in vivo, mouse (BDF1); conditions: L1210, ip, 720 h, 6 days; for responders at 0.2 mg/kg / response vs control in vivo at 0.2 mg/kg: 0.20 mg/kg/day i.p.; for responders at 0.39 mg/kg / response vs control in vivo at 0.39 mg/kg: 0.39 mg/kg/day i.p.; for responders at 0.78 mg/kg / response vs control in vivo at 0.78 mg/kg: 0.78 mg/kg/day i.p.; for responders at 1.56 mg/kg / response vs control in vivo at 1.56 mg/kg: 1.56 mg/kg/day i.p.; for responders at 3.13 mg/kg / response vs control in vivo at 3.13 mg/kg: 3.13 mg/kg/day i.p.; for responders at 6.25 mg/kg / response vs control in vivo at 6.25 mg/kg: 6.25 mg/kg/day i.p.; for responders at 12.5 mg/kg / response vs control in vivo at 12.5 mg/kg: 12.5 mg/kg/day i.p.
Outline: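 Male BDF1 mice aged 5 weeks received an intraperitoneal inoculation of 10^5 L-1210 mouse leukemia cells. Starting on the inoculation day, test compounds dissolved in physiological saline were injected intraperitoneally once daily for 6 consecutive days, and animals were then followed for 30 days to record survival.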

[3] = chemical stability: retention (%) after heating at 60° C. for 4 hours, by HPLC; format: physicochemical
Method: The chemical stability of the present compound was evaluated by determining the retention (%) after heating at 60° C. for 4 hours. In Table 5 are shown the test results together with those for spergualin as reference. The retention was determined by means of high performance liquid chromatography (HPLC). The column was packed with Nucleosil® 5C18. The solvent used for spergualin was a mixture (6:94) of acetonitrile -0.01M sodium pentanesulfonate +0.01M Na2 HPO4 (pH 3), while that for the compounds of this invention was a mixture of acetonitrile -0.005M sodium pentanesulfonate ±0.01M Na2 HPO4 (pH 3). The mixture ratio in the latter case was varied for each particular compound. For instance, a mixing ratio of 10:90 was used for Compound No. 9, while that of 7:93 for Compound No. 22.

[4] = acute toxicity in mice (single intraperitoneal administration); conditions: mouse, in vivo, ip, read-out: LD50 (median lethal dose on single administration)
Method: In Table 8 median lethal doses (LD50) of typical compounds of this invention are shown, measured in mice upon single intraperitoneal administration, as well as maximum tolerated doses in terms of total dose when a fixed amount per unit body weight was administered intraperitoneally to mice once a day for 6 consecutive days.
*Median lethal dose on single administration.

[5] = read-out: Growth inhibition (%), (1-T/C) × 100
[6] = read-out: Number of mice survived for 30 days (converted)
[7] = read-out: Prolongation of survival period (%), T/C × 100

SMILES	inhibition at 5 µg/mL [1, 5] [%]	inhibition at 10 µg/mL [1, 5] [%]	inhibition at 20 µg/mL [1, 5] [%]	inhibition at 40 µg/mL [1, 5] [%]	inhibition at 80 µg/mL [1, 5] [%]	IC50 [1] [µg/mL]	MTD [2] [mg/kg]	responders at 0.2 mg/kg (mouse leukemia L-1210; [6]) [%]	response vs control in vivo at 0.2 mg/kg (mouse leukemia L-1210; [7]) [%]	remaining at 4 h ([3]; pH 2, pH 2) [%]	remaining at 4 h ([3]; pH 3, pH 3) [%]	remaining at 4 h ([3]; pH 4, pH 4) [%]	remaining at 4 h ([3]; pH 5, pH 5) [%]	remaining at 4 h ([3]; pH 6, pH 6) [%]	remaining at 4 h ([3]; pH 7, pH 7) [%]	remaining at 4 h ([3]; pH 8, pH 8) [%]	remaining at 4 h ([3]; pH 9, pH 9) [%]	remaining at 4 h ([3]; pH 10, pH 10) [%]	LD50 ([4]; mice, single i.p.) [mg/kg]	inhibition at 2.5 µg/mL [1, 5] [%]	further results
COC(NC(=O)CCCCCCNC(=N)N)C(=O)NCCCCNCCCN (racemic) [Compound 9, N-[4-(3-aminopropyl)aminobutyl]-2-(7-guanidinoheptanamido)-2-methoxyethanamide]	35.5	45.9	62.3	78.1	90.9	12 (≈ 29.9 µM)	> 75	0	114	69.3	89.3	100	100	100	100	100	97.5	97.9	12.5 to 25	–	inhibition at 160 µg/mL ([1]; L1210, 160 mcg/ml, read-out: Growth inhibition (%), (1-T/C) × 100): 96%; responders at 0.39 mg/kg (mouse leukemia L-1210; [6]): 0%; response vs control in vivo at 0.39 mg/kg (mouse leukemia L-1210; [7]): 171%; responders at 0.78 mg/kg (mouse leukemia L-1210; [6]): 50%; response vs control in vivo at 0.78 mg/kg (mouse leukemia L-1210; [7]): > 300%; responders at 1.56 mg/kg (mouse leukemia L-1210; [6]): 25%; response vs control in vivo at 1.56 mg/kg (mouse leukemia L-1210; [7]): > 411%; responders at 3.13 mg/kg (mouse leukemia L-1210; [6]): 100%; response vs control in vivo at 3.13 mg/kg (mouse leukemia L-1210; [7]): > 429%; responders at 6.25 mg/kg (mouse leukemia L-1210; [6]): 100%; response vs control in vivo at 6.25 mg/kg (mouse leukemia L-1210; [7]): > 429%; responders at 12.5 mg/kg (mouse leukemia L-1210; [6]): 100%; response vs control in vivo at 12.5 mg/kg (mouse leukemia L-1210; [7]): > 429%; responders at 25 mg/kg (mouse leukemia L-1210; 25 mg/kg/day i.p., read-out: Number of mice survived for 30 days (converted)): 0%; response vs control in vivo at 25 mg/kg (mouse leukemia L-1210; 25 mg/kg/day i.p., read-out: Prolongation of survival period (%), T/C × 100): 0%; responders at 50 mg/kg (mouse leukemia L-1210; 50 mg/kg/day i.p., read-out: Number of mice survived for 30 days (converted)): 0%; response vs control in vivo at 50 mg/kg (mouse leukemia L-1210; 50 mg/kg/day i.p., read-out: Prolongation of survival period (%), T/C × 100): 0%
N=C(N)NCCCC[C@H](O)CC(=O)NC(OCc1ccccc1)C(=O)NCCCCNCCCN (stereo partly drawn) [Compound 26, N-[4-(3-aminopropyl)aminobutyl]-2-(7-guanidino-3-hydroxyheptanamido)-2-benzyloxyethanamide]	79	90.2	96.6	97.3	–	2.2 (≈ 4.46 µM)	> 75	–	–	77.2	–	100	100	100	100	100	95.9	94.5	–	54.2	LD50 [4]: 12.5 to 25 mg/kg
CCCCOC(NC(=O)C[C@@H](O)CCCCNC(=N)N)C(=O)NCCCCNCCCN (stereo partly drawn) [Compound 24, N-[4-(3-aminopropyl)aminobutyl]-2-(7-guanidino-3-hydroxyheptanamido)-2-butoxyethanamide]	75.6	89.5	95	97.2	–	2.6 (≈ 5.66 µM)	> 300	–	–	76.3	–	100	100	100	100	100	97.1	94.8	> 50	47.3	–
N=C(N)NCCCCCCC(=O)NC(OCc1ccccc1)C(=O)NCCCCNCCCN (stereo not drawn) [Compound 15, N-[4-(3-aminopropyl)aminobutyl]-2-(7-guanidinoheptanamido)-2-benzyloxyethanamide]	71	94.5	97.7	100	–	3.1 (≈ 6.49 µM)	> 75	–	–	76.5	91.4	100	–	100	–	100	99	96.2	12.5 to 25	39	inhibition at 1.25 µg/mL ([1]; L1210, 1.25 mcg/ml, read-out: Growth inhibition (%), (1-T/C) × 100): 27.1%
N=C(N)NCCCCCCC(=O)NC(OCCO)C(=O)NCCCCNCCCN (stereo not drawn) [Compound 14, N-[4-(3-aminopropyl)aminobutyl]-2-(7-guanidinoheptanamido)-2-(2-hydroxy)ethoxyethanamide]	22.3	24.6	29.9	42.7	58.6	52 (≈ 120 µM)	> 150	–	–	71.8	90.6	100	–	100	–	100	97.5	97.3	25 to 50	–	–
N=C(N)NCCCCCCC=CC(=O)NC(O)C(=O)NCCCCNCCCN (stereo not drawn) [Compound 18, N-[4-(3-aminopropyl)aminobutyl]-2-(9-guanidino-2-nonenamido)-2-hydroxyethanamide]	15.7	20.9	29.5	32.3	47.8	90 (≈ 218 µM)	> 37.5	0	136	–	–	–	–	–	–	–	–	–	6.25 to 12.5	–	responders at 0.1 mg/kg (mouse leukemia L-1210; 0.10 mg/kg/day i.p., read-out: Number of mice survived for 30 days): 0%; response vs control in vivo at 0.1 mg/kg (mouse leukemia L-1210; 0.10 mg/kg/day i.p., read-out: Prolongation of survival period (%), T/C × 100): 129%; responders at 0.39 mg/kg (mouse leukemia L-1210; [6]): 0%; response vs control in vivo at 0.39 mg/kg (mouse leukemia L-1210; [7]): 157%; responders at 0.78 mg/kg (mouse leukemia L-1210; [6]): 0%; response vs control in vivo at 0.78 mg/kg (mouse leukemia L-1210; [7]): 200%; responders at 1.56 mg/kg (mouse leukemia L-1210; [6]): 75%; response vs control in vivo at 1.56 mg/kg (mouse leukemia L-1210; [7]): > 429%; responders at 3.13 mg/kg (mouse leukemia L-1210; [6]): 100%; response vs control in vivo at 3.13 mg/kg (mouse leukemia L-1210; [7]): > 429%; responders at 6.25 mg/kg (mouse leukemia L-1210; [6]): 50%; response vs control in vivo at 6.25 mg/kg (mouse leukemia L-1210; [7]): > 350%; responders at 12.5 mg/kg (mouse leukemia L-1210; [6]): 0%; response vs control in vivo at 12.5 mg/kg (mouse leukemia L-1210; [7]): 0%
